These results are taken from publication PMC8887546, “Design and Synthesis of Brain Penetrant Glycopeptide Analogues of PACAP With Neuroprotective Potential for Traumatic Brain Injury and Parkinsonism” (Frontiers in drug discovery, 2022).

Each structure is given as a SMILES string. Some results are limits rather than exact numbers.

Common to all, as to assay type: cell-based
Assay [1] addresses T1, human PAC1 receptor (Homo sapiens, UniProt P41586).
T1 construct: expressed in transfected cells; host or cells: CHO cells (G418 selection)
T1 sequence (P41586 21-468): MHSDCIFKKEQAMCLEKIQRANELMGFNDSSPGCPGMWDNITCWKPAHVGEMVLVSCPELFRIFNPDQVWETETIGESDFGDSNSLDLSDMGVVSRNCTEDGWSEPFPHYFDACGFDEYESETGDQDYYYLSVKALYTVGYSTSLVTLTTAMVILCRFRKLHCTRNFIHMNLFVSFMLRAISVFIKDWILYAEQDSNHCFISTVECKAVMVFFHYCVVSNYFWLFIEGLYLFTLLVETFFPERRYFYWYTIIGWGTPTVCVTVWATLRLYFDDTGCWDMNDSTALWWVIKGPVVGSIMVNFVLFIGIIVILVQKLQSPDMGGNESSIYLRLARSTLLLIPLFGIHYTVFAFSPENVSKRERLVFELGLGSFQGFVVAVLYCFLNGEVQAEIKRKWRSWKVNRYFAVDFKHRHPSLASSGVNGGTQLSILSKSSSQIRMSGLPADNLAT
The experiment in a line: cAMP stimulation in CHO cells expressing PAC1. The note with it: for Emax: CHO. A digest of the protocol: (§1)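 Serum-starved CHO cells expressing human receptors were pre-treated 20 min with 500 μM IBMX, then exposed to agonist concentration curves for 10 min in 500 μM IBMX. cAMP quantified by competition with bovine PKA and ^3H-cAMP (1 h, room temperature), scintillation read.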

Assay [2] has as its target T2, human VPAC1 receptor (Homo sapiens, UniProt P32241).
T2 construct: expressed in transfected cells; host or cells: CHO cells (G418 selection)
T2 sequence (P32241 31-457): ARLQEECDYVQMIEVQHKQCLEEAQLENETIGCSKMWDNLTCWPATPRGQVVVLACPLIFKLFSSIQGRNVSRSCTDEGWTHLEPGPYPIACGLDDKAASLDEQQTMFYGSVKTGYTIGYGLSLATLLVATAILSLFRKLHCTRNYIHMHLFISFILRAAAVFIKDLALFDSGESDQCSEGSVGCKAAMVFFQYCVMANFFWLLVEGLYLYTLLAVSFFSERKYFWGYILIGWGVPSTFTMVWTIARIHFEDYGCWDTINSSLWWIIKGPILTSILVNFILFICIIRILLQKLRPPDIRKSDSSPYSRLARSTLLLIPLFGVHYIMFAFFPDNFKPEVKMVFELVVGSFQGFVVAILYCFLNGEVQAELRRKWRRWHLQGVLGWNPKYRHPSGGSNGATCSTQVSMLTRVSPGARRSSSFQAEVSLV
As to the kind of experiment: cAMP stimulation in CHO cells expressing VPAC1. The note with it: for Emax: CHO, read-out: VPAC1 Emax; for Receptor selectivity ratio VPAC1/PAC1: ratio of cAMP EC50 values; for EC50: read-out: VPAC1 EC50.

Assay [3] concerns the target T3, human VPAC2 receptor (Homo sapiens, UniProt P41587).
T3 construct: expressed in transfected cells; host or cells: CHO cells (G418 selection)
T3 sequence (P41587 24-438): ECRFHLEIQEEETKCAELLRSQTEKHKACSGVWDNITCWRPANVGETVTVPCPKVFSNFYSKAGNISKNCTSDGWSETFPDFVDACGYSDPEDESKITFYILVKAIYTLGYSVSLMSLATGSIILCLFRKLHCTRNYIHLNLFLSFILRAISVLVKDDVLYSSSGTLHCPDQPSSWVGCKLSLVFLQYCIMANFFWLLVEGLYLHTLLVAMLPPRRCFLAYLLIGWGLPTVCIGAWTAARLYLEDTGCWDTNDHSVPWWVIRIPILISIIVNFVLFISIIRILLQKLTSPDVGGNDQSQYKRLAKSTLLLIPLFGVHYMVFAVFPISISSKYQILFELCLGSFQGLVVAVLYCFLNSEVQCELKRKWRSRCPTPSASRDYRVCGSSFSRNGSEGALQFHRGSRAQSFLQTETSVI
The experiment in a line: cAMP stimulation in CHO cells expressing VPAC2. The note with it: for Emax: CHO; for Receptor selectivity ratio VPAC2/PAC1 / Receptor selectivity ratio VPAC2/VPAC1: ratio of cAMP EC50 values. A digest of the protocol: as §1

On to `CCCC[C@@H](NC(=O)CNC(=O)[C@H](CC(=O)O)NC(=O)[C@@H](CO)NC(=O)[C@@H](N)Cc1c[nH]cn1)C(=O)N[C@@H](Cc1ccccc1)C(=O)N[C@H](C(=O)N[C@@H](CC(=O)O)C(=O)N[C@@H](CO)C(=O)N[C@@H](Cc1ccc(O)cc1)C(=O)N[C@@H](CO)C(=O)N[C@@H](CCCNC(=N)N)C(=O)N[C@@H](Cc1ccc(O)cc1)C(=O)N[C@@H](CCCNC(=N)N)C(=O)N[C@@H](CCCCN)C(=O)N[C@@H](CCC(N)=O)C(=O)N[C@@H](CCC)C(=O)N[C@@H](C)C(=O)N[C@H](C(=O)N[C@@H](CCCCN)C(=O)N[C@@H](CCCCN)C(=O)N[C@@H](Cc1ccc(O)cc1)C(=O)N[C@@H](CC(C)C)C(=O)N[C@@H](C)C(=O)N[C@@H](C)C(=O)N[C@H](C(=O)N[C@@H](CC(C)C)C(=O)N[C@@H](CO[C@@H]1O[C@H](CO)[C@@H](O)[C@H](O)[C@H]1O)C(N)=O)C(C)C)C(C)C)[C@@H](C)O` [CRA3019], for which the EC50 was 847 nM in assay [1], 649 nM in assay [2] and > 2500 nM in assay [3]. Also, the values for the Emax in assay [1], in assay [2] and in assay [3] were 65%, 72% and 74%, respectively. The “Receptor selectivity ratio VPAC1/PAC1” value in assay [2] was found to be 0.77.

In assay [1], `CCCC[C@H](NC(=O)CNC(=O)[C@H](CC(=O)O)NC(=O)[C@@H](CO)NC(=O)[C@@H](N)Cc1c[nH]cn1)C(=O)N[C@@H](Cc1ccccc1)C(=O)N[C@H](C(=O)N[C@@H](CC(=O)O)C(=O)N[C@@H](CO)C(=O)N[C@@H](Cc1ccc(O)cc1)C(=O)N[C@@H](CO)C(=O)N[C@@H](CCCNC(=N)N)C(=O)N[C@@H](Cc1ccc(O)cc1)C(=O)N[C@@H](CCCNC(=N)N)C(=O)N[C@@H](CCCCN)C(=O)N[C@@H](CCC(N)=O)C(=O)N[C@@H](CCC)C(=O)N[C@@H](C)C(=O)N[C@H](C(=O)N[C@@H](CCCCN)C(=O)N[C@@H](CCCCN)C(=O)N[C@@H](Cc1ccc(O)cc1)C(=O)N[C@@H](CC(C)C)C(=O)N[C@@H](C)C(=O)N[C@@H](C)C(=O)N[C@H](C(=O)N[C@@H](CC(C)C)C(=O)N[C@@H](CO[C@@H]1O[C@H](CO)[C@@H](O)[C@H](O)[C@H]1O)C(N)=O)C(C)C)C(C)C)[C@@H](C)O` [CRA3017] returned an EC50 of 10.6 nM and an Emax of 95%. In addition, in assay [2], the Emax was found to be 94%, the “Receptor selectivity ratio VPAC1/PAC1” value was found to be 0.45 and the EC50 turned out to be 4.8 nM. In assay [3], the midpoint of the response, the EC50, lay at 189 nM; the Emax was found to be 109%; the “Receptor selectivity ratio VPAC2/PAC1” value is reported as 17.83; the “Receptor selectivity ratio VPAC2/VPAC1” value was determined as 39.38.

In assay [1], `CCC[C@H](NC(=O)[C@H](CCC(N)=O)NC(=O)[C@H](CCCCN)NC(=O)[C@H](CCCNC(=N)N)NC(=O)[C@H](Cc1ccc(O)cc1)NC(=O)[C@H](CCCNC(=N)N)NC(=O)[C@H](CO)NC(=O)[C@H](Cc1ccc(O)cc1)NC(=O)[C@H](CO)NC(=O)[C@H](CC(=O)O)NC(=O)[C@@H](NC(=O)[C@H](Cc1ccccc1)NC(=O)[C@@H](NC(=O)C(C)(C)NC(=O)[C@H](CC(=O)O)NC(=O)[C@@H](CO)NC(=O)[C@@H](N)Cc1c[nH]cn1)[C@@H](C)CC)[C@@H](C)O)C(=O)N[C@@H](C)C(=O)N[C@H](C(=O)N[C@@H](CCCCN)C(=O)N[C@@H](CCCCN)C(=O)N[C@@H](Cc1ccc(O)cc1)C(=O)N[C@@H](CC(C)C)C(=O)N[C@@H](C)C(=O)N[C@@H](C)C(=O)N[C@H](C(=O)N[C@@H](CC(C)C)C(=O)N[C@@H](CO[C@@H]1O[C@H](CO)[C@@H](O)[C@H](O)[C@H]1O)C(N)=O)C(C)C)C(C)C` [CRA3011] registered an EC50 of 784 nM and an Emax of 68%. In assay [2], the Emax is 91%, the “Receptor selectivity ratio VPAC1/PAC1” value was found to be 0.04 and the concentration for a half-maximal effect (EC50) turned out to be 34.2 nM. In assay [2] (from cAMP EC50 values), the “Selectivity for VPAC1 over PAC1” value is reported as ~23 fold. Moreover, in assay [3], the EC50 was determined as 223 nM, the Emax worked out at 99%, the “Receptor selectivity ratio VPAC2/PAC1” value came out at 0.28 and the “Receptor selectivity ratio VPAC2/VPAC1” value turned out to be 6.52.

In assay [1], `CCC[C@H](NC(=O)[C@H](CCC(N)=O)NC(=O)[C@H](CCCCN)NC(=O)[C@H](CCCNC(=N)N)NC(=O)[C@H](Cc1ccc(O)cc1)NC(=O)[C@H](CCCNC(=N)N)NC(=O)[C@H](CO)NC(=O)[C@H](Cc1ccc(O)cc1)NC(=O)[C@H](CO)NC(=O)[C@H](CC(=O)O)NC(=O)[C@@H](NC(=O)[C@H](Cc1ccccc1)NC(=O)[C@@H](NC(=O)CCNC(=O)[C@H](CC(=O)O)NC(=O)[C@@H](CO)NC(=O)[C@@H](N)Cc1c[nH]cn1)[C@@H](C)CC)[C@@H](C)O)C(=O)N[C@@H](C)C(=O)N[C@H](C(=O)N[C@@H](CCCCN)C(=O)N[C@@H](CCCCN)C(=O)N[C@@H](Cc1ccc(O)cc1)C(=O)N[C@@H](CC(C)C)C(=O)N[C@@H](C)C(=O)N[C@@H](C)C(=O)N[C@H](C(=O)N[C@@H](CC(C)C)C(=O)N[C@@H](CO[C@@H]1O[C@H](CO)[C@@H](O)[C@H](O)[C@H]1O)C(N)=O)C(C)C)C(C)C` [CRA3008] showed an EC50 of 159 nM and an Emax of 76%. In addition, in assay [2], the Emax turned out to be 108%, the “Receptor selectivity ratio VPAC1/PAC1” value is recorded as 1.27 and the EC50 was found to be 202 nM. Further, in assay [3], the EC50 was determined as 737 nM, the Emax is 65%, the “Receptor selectivity ratio VPAC2/PAC1” value was determined as 4.64 and the “Receptor selectivity ratio VPAC2/VPAC1” value was 3.65.

In assay [1], `CCC[C@H](NC(=O)[C@H](CCC(N)=O)NC(=O)[C@H](CCCCN)NC(=O)[C@H](CCCNC(=N)N)NC(=O)[C@H](Cc1ccc(O)cc1)NC(=O)[C@H](CCCNC(=N)N)NC(=O)[C@H](CO)NC(=O)[C@H](Cc1ccc(O)cc1)NC(=O)[C@H](CO)NC(=O)[C@H](CC(=O)O)NC(=O)[C@@H](NC(=O)[C@H](Cc1ccccc1)NC(=O)[C@@H](NC(=O)CN(C)C(=O)[C@H](CC(=O)O)NC(=O)[C@@H](CO)NC(=O)[C@@H](N)Cc1c[nH]cn1)[C@@H](C)CC)[C@@H](C)O)C(=O)N[C@@H](C)C(=O)N[C@H](C(=O)N[C@@H](CCCCN)C(=O)N[C@@H](CCCCN)C(=O)N[C@@H](Cc1ccc(O)cc1)C(=O)N[C@@H](CC(C)C)C(=O)N[C@@H](C)C(=O)N[C@@H](C)C(=O)N[C@H](C(=O)N[C@@H](CC(C)C)C(=O)N[C@@H](CO[C@@H]1O[C@H](CO)[C@@H](O)[C@H](O)[C@H]1O)C(N)=O)C(C)C)C(C)C` [CRA 3007] registered an EC50 of 30 nM and an Emax of 88%. In assay [1] (from cAMP EC50 values), the “Selectivity for PAC1 over VPAC1” value was ~5 fold and the “Selectivity for PAC1 over VPAC2” value was ~24 fold. Besides, in assay [2], the Emax was 111%, the “Receptor selectivity ratio VPAC1/PAC1” value is reported as 5.50 and the EC50 was found to be 165 nM. In assay [3], the EC50 stood at 706 nM, the Emax was found to be 70%, the “Receptor selectivity ratio VPAC2/PAC1” value was 23.53 and the “Receptor selectivity ratio VPAC2/VPAC1” value is on record as 4.28.

Usually EC50 stands for the concentration at which the effect is half-maximal. One may read the Emax as the greatest response seen or fitted, relative to the assay's reference.
